Measured values as given in patent publication US11331369B2, “Endoparasitic depsipeptides” (Zoetis Services LLC, priority 2017, dated 2022).

tested on: microfilariae of Dirofilaria immitis; experiment: Dirofilaria immitis, Microfilaria (DiMF) In vitro Assay; type: cell-based; settings: 72 h, read-out: DiMF Minimum Effective Dose (MED), approximately 72 hours incubation, microfilariae assessed for survival or paralysis

| SMILES | minimal effective concentration [µM] |
| --- | --- |
| CC(C)C[C@H]1C(=O)O[C@H](Cc2ccc(CN3CCOc4ccccc43)cc2)C(=O)N(C)[C@@H](CC(C)C)C(=O)O[C@H](C)C(=O)N(C)[C@@H](CC(C)C)C(=O)O[C@H](Cc2ccccc2)C(=O)N(C)[C@@H](CC(C)C)C(=O)O[C@H](C)C(=O)N1C [Example 10-16, (3S,6R,9S,12R,15S,18R,21S,24R)-6-benzyl-18-(4-((2,3-dihydro-4H-benzo[b][1,4]oxazin-4-yl)methyl)benzyl)-3,9,15,21-tetraisobutyl-4,10,12,16,22,24-hexamethyl-1,7,13,19-tetraoxa-4,10,16,22-tetraazacyclotetracosan-2,5,8,11,14,17,20,23-octaone] | 0.01 to 0.1 |
| CC(C)C[C@H]1C(=O)O[C@H](Cc2ccc(Cn3cc(CO)nn3)cc2)C(=O)N(C)[C@@H](CC(C)C)C(=O)O[C@H](C)C(=O)N(C)[C@@H](CC(C)C)C(=O)O[C@H](Cc2ccccc2)C(=O)N(C)[C@@H](CC(C)C)C(=O)O[C@H](C)C(=O)N1C [Example 10-19, (3S,6R,9S,12R,15S,18R,21S,24R)-6-benzyl-18-(4-((4-(hydroxymethyl)-1H-1,2,3-triazol-1-yl)methyl)benzyl)-3,9,15,21-tetraisobutyl-4,10,12,16,22,24-hexamethyl-1,7,13,19-tetraoxa-4,10,16,22-tetraazacyclotetracosan-2,5,8,11,14,17,20,23-octaone] | 0.01 to 0.1 |
| Cc1ccc(OCc2cn(Cc3ccc(C[C@H]4OC(=O)[C@H](CC(C)C)N(C)C(=O)[C@@H](C)OC(=O)[C@H](CC(C)C)N(C)C(=O)[C@@H](Cc5ccccc5)OC(=O)[C@H](CC(C)C)N(C)C(=O)[C@@H](C)OC(=O)[C@H](CC(C)C)N(C)C4=O)cc3)nn2)cc1 [Example 10-21, (3S,6R,9S,12R,15S,18R,21S,24R)-6-benzyl-3,9,15,21-tetraisobutyl-4,10,12,16,22,24-hexamethyl-18-(4-((4-((p-tolyloxy)methyl)-1H-1,2,3-triazol-1-yl)methyl)benzyl)-1,7,13,19-tetraoxa-4,10,16,22-tetraazacyclotetracosan-2,5,8,11,14,17,20,23-octaone] | 0.01 to 0.1 |
| COc1ccc(OCc2cn(Cc3ccc(C[C@H]4OC(=O)[C@H](CC(C)C)N(C)C(=O)[C@@H](C)OC(=O)[C@H](CC(C)C)N(C)C(=O)[C@@H](Cc5ccccc5)OC(=O)[C@H](CC(C)C)N(C)C(=O)[C@@H](C)OC(=O)[C@H](CC(C)C)N(C)C4=O)cc3)nn2)cc1 [Example 10-22, (3S,6R,9S,12R,15S,18R,21S,24R)-6-benzyl-3,9,15,21-tetraisobutyl-18-(4-((4-((4-methoxyphenoxy)methyl)-1H-1,2,3-triazol-1-yl)methyl)benzyl)-4,10,12,16,22,24-hexamethyl-1,7,13,19-tetraoxa-4,10,16,22-tetraazacyclotetracosan-2,5,8,11,14,17,20,23-octaone] | 0.01 to 0.1 |
| CC(C)C[C@H]1C(=O)O[C@H](Cc2ccc(Cn3cc(COc4cccc(C#N)c4)nn3)cc2)C(=O)N(C)[C@@H](CC(C)C)C(=O)O[C@H](C)C(=O)N(C)[C@@H](CC(C)C)C(=O)O[C@H](Cc2ccccc2)C(=O)N(C)[C@@H](CC(C)C)C(=O)O[C@H](C)C(=O)N1C [Example 10-23, 3-((1-(4-(((2R,5S,8R,11S,14R,17S,20R,23S)-14-benzyl-5,11,17,23-tetraisobutyl-4,8,10,16,20,22-hexamethyl-3,6,9,12,15,18,21,24-octaoxo-1,7,13,19-tetraoxa-4,10,16,22-tetraazacyclotetracosan-2-yl)methyl)benzyl)-1H-1,2,3-triazol-4-yl)methoxy)benzonitrile] | 0.01 to 0.1 |
| CC(C)C[C@H]1C(=O)O[C@H](Cc2ccc(CN3CC(CO)OC3=O)cc2)C(=O)N(C)[C@@H](CC(C)C)C(=O)O[C@H](C)C(=O)N(C)[C@@H](CC(C)C)C(=O)O[C@H](Cc2ccccc2)C(=O)N(C)[C@@H](CC(C)C)C(=O)O[C@H](C)C(=O)N1C (stereo partly drawn) [Example 10-24, (3S,6R,9S,12R,15S,18R,21S,24R)-6-benzyl-18-(4-((5-(hydroxymethyl)-2-oxooxazolidin-3-yl)methyl)benzyl)-3,9,15,21-tetraisobutyl-4,10,12,16,22,24-hexamethyl-1,7,13,19-tetraoxa-4,10,16,22-tetraazacyclotetracosan-2,5,8,11,14,17,20,23-octaone] | 0.01 to 0.1 |
| CC(C)C[C@H]1C(=O)O[C@H](Cc2ccc(CN3CCCOC3=O)cc2)C(=O)N(C)[C@@H](CC(C)C)C(=O)O[C@H](C)C(=O)N(C)[C@@H](CC(C)C)C(=O)O[C@H](Cc2ccccc2)C(=O)N(C)[C@@H](CC(C)C)C(=O)O[C@H](C)C(=O)N1C [Example 10-25, (3S,6R,9S,12R,15S,18R,21S,24R)-6-benzyl-3,9,15,21-tetraisobutyl-4,10,12,16,22,24-hexamethyl-18-(4-((2-oxo-1,3-oxazinan-3-yl)methyl)benzyl)-1,7,13,19-tetraoxa-4,10,16,22-tetraazacyclotetracosan-2,5,8,11,14,17,20,23-octaone] | 0.01 to 0.1 |
| CC(C)C[C@H]1C(=O)O[C@H](Cc2ccc(Cn3ncc4ccccc43)cc2)C(=O)N(C)[C@@H](CC(C)C)C(=O)O[C@H](C)C(=O)N(C)[C@@H](CC(C)C)C(=O)O[C@H](Cc2ccccc2)C(=O)N(C)[C@@H](CC(C)C)C(=O)O[C@H](C)C(=O)N1C [Example 10-26, (3S,6R,9S,12R,15S,18R,21S,24R)-6-(4-((1H-indazol-1-yl)methyl)benzyl)-18-benzyl-3,9,15,21-tetraisobutyl-4,10,12,16,22,24-hexamethyl-1,7,13,19-tetraoxa-4,10,16,22-tetraazacyclotetracosan-2,5,8,11,14,17,20,23-octaone] | 0.01 to 0.1 |
| CC(C)C[C@H]1C(=O)O[C@H](Cc2ccc(Cn3cc4c(n3)CNC4)cc2)C(=O)N(C)[C@@H](CC(C)C)C(=O)O[C@H](C)C(=O)N(C)[C@@H](CC(C)C)C(=O)O[C@H](Cc2ccccc2)C(=O)N(C)[C@@H](CC(C)C)C(=O)O[C@H](C)C(=O)N1C [Example 10-27, (3S,6R,9S,12R,15S,18R,21S,24R)-6-benzyl-18-(4-((5,6-dihydropyrrolo[3,4-c]pyrazol-2(4H)-yl)methyl)benzyl)-3,9,15,21-tetraisobutyl-4,10,12,16,22,24-hexamethyl-1,7,13,19-tetraoxa-4,10,16,22-tetraazacyclotetracosan-2,5,8,11,14,17,20,23-octaone] | 0.01 to 0.1 |
| CC(C)C[C@H]1C(=O)O[C@H](Cc2ccc(Cn3cc4c(n3)CCOC4)cc2)C(=O)N(C)[C@@H](CC(C)C)C(=O)O[C@H](C)C(=O)N(C)[C@@H](CC(C)C)C(=O)O[C@H](Cc2ccccc2)C(=O)N(C)[C@@H](CC(C)C)C(=O)O[C@H](C)C(=O)N1C [Example 10-28, (3S,6R,9S,12R,15S,18R,21S,24R)-6-benzyl-18-(4-((6,7-dihydropyrano[4,3-c]pyrazol-2(4H)-yl)methyl)benzyl)-3,9,15,21-tetraisobutyl-4,10,12,16,22,24-hexamethyl-1,7,13,19-tetraoxa-4,10,16,22-tetraazacyclotetracosan-2,5,8,11,14,17,20,23-octaone] | 0.01 to 0.1 |
| CC(C)C[C@H]1C(=O)O[C@H](Cc2ccc(Cn3cc4c(n3)CN(C)C4)cc2)C(=O)N(C)[C@@H](CC(C)C)C(=O)O[C@H](C)C(=O)N(C)[C@@H](CC(C)C)C(=O)O[C@H](Cc2ccccc2)C(=O)N(C)[C@@H](CC(C)C)C(=O)O[C@H](C)C(=O)N1C [Example 10-32, (3S,6R,9S,12R,15S,18R,21S,24R)-6-benzyl-3,9,15,21-tetraisobutyl-4,10,12,16,22,24-hexamethyl-18-(4-((5-methyl-5,6-dihydropyrrolo[3,4-c]pyrazol-2(4H)-yl)methyl)benzyl)-1,7,13,19-tetraoxa-4,10,16,22-tetraazacyclotetracosan-2,5,8,11,14,17,20,23-octaone] | 0.01 to 0.1 |
| CC(C)C[C@H]1C(=O)O[C@H](Cc2ccc(CN3CCS(=O)(=O)c4ccccc43)cc2)C(=O)N(C)[C@@H](CC(C)C)C(=O)O[C@H](C)C(=O)N(C)[C@@H](CC(C)C)C(=O)O[C@H](Cc2ccc(CN3CCS(=O)(=O)c4ccccc43)cc2)C(=O)N(C)[C@@H](CC(C)C)C(=O)O[C@H](C)C(=O)N1C [Example 10-33, (3S,6R,9S,12R,15S,18R,21S,24R)-6,18-bis(4-((1,1-dioxido-2,3-dihydro-4H-benzo[b][1,4]thiazin-4-yl)methyl)benzyl)-3,9,15,21-tetraisobutyl-4,10,12,16,22,24-hexamethyl-1,7,13,19-tetraoxa-4, 10,16,22-tetraazacyclotetracosan-2,5,8,11,14,17,20,23-octaone] | 0.01 to 0.1 |
| CC(C)C[C@H]1C(=O)O[C@H](Cc2ccc(CN3CCSc4ncccc43)cc2)C(=O)N(C)[C@@H](CC(C)C)C(=O)O[C@H](C)C(=O)N(C)[C@@H](CC(C)C)C(=O)O[C@H](Cc2ccccc2)C(=O)N(C)[C@@H](CC(C)C)C(=O)O[C@H](C)C(=O)N1C [Example 10-35, (3S,6R,9S,12R,15S,18R,21S,24R)-6-benzyl-18-[[4-(2,3-dihydropyrido[2,3-b][1,4]thiazin-1-ylmethyl)phenyl]methyl]-3,9,15,21-tetraisobutyl-4,10,12,16,22,24-hexamethyl-1,7,13,19-tetraoxa-4, 10,16,22-tetrazacyclotetracosane-2,5,8,11,14,17,20,23-octaone] | 0.01 to 0.1 |
| CC(C)C[C@H]1C(=O)O[C@H](Cc2ccc(CN3CCOc4cccnc43)cc2)C(=O)N(C)[C@@H](CC(C)C)C(=O)O[C@H](C)C(=O)N(C)[C@@H](CC(C)C)C(=O)O[C@H](Cc2ccccc2)C(=O)N(C)[C@@H](CC(C)C)C(=O)O[C@H](C)C(=O)N1C [Example 10-37, (3S,6R,9S,12R,15S,18R,21S,24R)-6-benzyl-18-[[4-(2,3-dihydropyrido[3,2-b][1,4]oxazin-4-ylmethyl)phenyl]methyl]-3,9,15,21-tetraisobutyl-4,10,12,16,22,24-hexamethyl-1,7,13,19-tetraoxa-4, 10,16,22-tetrazacyclotetracosane-2,5,8,11,14,17,20,23-octaone] | 0.001 to 0.01 |
